Results published in patent publication US6875761B2 (Eisai Co., Ltd., priority 1997, dated 2005).
Structures can show the parent of a compound that is named as a salt.

Legend:
serotonin 1A receptor = target: T1, serotonin 1A receptor (Rattus norvegicus, UniProt P19327); test: Binding test on [3H] 8-hydroxy-dipropylaminotetralin, hippocampus receptor fraction; set-up: species or system SD rats; conditions: rat hippocampus receptor fraction, 0.5 nM [3H] 8-OH-DPAT, room temperature 30 min; read-out: 5HT1
T1 construct: To the receptor fraction of the hippocampus were added a test compound and 0.5 nM of [^3H]; 8-hydroxy-dipropylaminotetralin; from tissue; host or cells: rat hippocampus membrane fraction
T1 sequence (P19327 1-422): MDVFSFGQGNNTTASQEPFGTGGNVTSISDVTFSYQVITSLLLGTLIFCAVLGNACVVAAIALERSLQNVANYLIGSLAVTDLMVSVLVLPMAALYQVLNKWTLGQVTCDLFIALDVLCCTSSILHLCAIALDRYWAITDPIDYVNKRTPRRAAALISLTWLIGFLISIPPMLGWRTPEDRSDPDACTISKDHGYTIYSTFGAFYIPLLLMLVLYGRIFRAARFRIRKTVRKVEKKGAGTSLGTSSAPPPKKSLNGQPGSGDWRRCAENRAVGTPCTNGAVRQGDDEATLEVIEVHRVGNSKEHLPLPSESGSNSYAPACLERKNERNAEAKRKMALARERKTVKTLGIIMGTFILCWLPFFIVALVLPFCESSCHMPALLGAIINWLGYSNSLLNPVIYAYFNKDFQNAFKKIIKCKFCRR

serotonin 2 receptor = target: T2, serotonin 2 receptor (Rattus norvegicus, UniProt P14842); test: Binding test on [3H] ketanserin, cerebral cortex receptor fraction; set-up: species or system SD rats; conditions: 0.3 nM [3H] ketanserin, 37° C. 15 min, read-out: 5HT2
T2 construct: To the receptor fraction of the cerebral cortex were added a test compound and 0.3 nM of [^3H] ketanserin; from tissue; host or cells: rat cerebral cortex membrane fraction
T2 sequence (P14842 whole entry): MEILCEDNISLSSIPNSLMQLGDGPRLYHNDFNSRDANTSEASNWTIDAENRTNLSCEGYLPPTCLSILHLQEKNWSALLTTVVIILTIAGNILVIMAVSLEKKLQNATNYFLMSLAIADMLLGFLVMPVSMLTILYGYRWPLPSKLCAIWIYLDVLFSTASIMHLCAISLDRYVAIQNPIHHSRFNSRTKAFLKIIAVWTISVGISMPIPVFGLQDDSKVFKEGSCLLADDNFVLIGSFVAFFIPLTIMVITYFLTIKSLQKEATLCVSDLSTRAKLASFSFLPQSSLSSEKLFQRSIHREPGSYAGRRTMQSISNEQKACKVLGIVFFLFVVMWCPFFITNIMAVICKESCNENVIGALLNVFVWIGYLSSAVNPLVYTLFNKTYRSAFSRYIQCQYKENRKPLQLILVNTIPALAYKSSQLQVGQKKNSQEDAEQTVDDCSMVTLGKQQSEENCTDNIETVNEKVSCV
Method: Methysergide maleate was dissolved in distilled water before using.
Use was made of SD rats aged 6 to 8 weeks.
The rats were sacrificed by dcapitation to extirpate the cerebra.
Each mixture was homogenized by using a Teflon glass homogenizer and centrifuged as 1,000× g for 10 min. The supernatant thus obtained was further centrifuged at 20,000× g for 20 min. […] After centrifuging at 20,000× g for 20 min, the obtained precipitate was further suspended and centrifuged twice each in the same manner. […] This receptor fraction was stored at −80° C. until using.
To the receptor fraction of the cerebral cortex were added a test compound and 0.3 nM of [^3H] ketanserin and the resultant mixture was incubated at 37° C. for 15 min. Next, it was filtered through a glass filter with the use of a cell harvester. After washing the glass filter with 50 mM Tris hydrochloride (pH 7.4), the radioactivity of the receptor was measured with a liquid scintillation counter. The binding detected in the presence of 1 μM of methysergide was referred to as the nonspecific binding.
IC50 was calculated by the probit method, while Ki was determined in accordance with the following formula: Ki=IC50(1+c/Kd) wherein c represents the concentration of the radioisotope-labeled compound, and Kd represents the dissociation constant of the radioisotope-labeled compound with respect to the receptor determined by Scatchard's analysis.

Row | SMILES | Ki (serotonin 1A receptor) | Ki (serotonin 2 receptor)
1 | CCN1CCN(c2nc(-c3ccc(S(=O)(=O)N4CCCC4)cc3)cc3ccccc23)CC1 [Example 356, 1-(4-ethylpiperazin-1-yl)-3-[4-(pyrrolidin-1-yl)sulfonylphenyl]isoquinoline dihydrochloride] | 2.1 nM | 24.2 nM
2 | CCNS(=O)(=O)c1ccc(-c2cc3ccccc3c(N3CCN(CC)CC3)n2)cc1 [Example 357, 1-(4-ethylpiperazin-1-yl)-3-[4-(N-ethylsulfamoyl)phenyl]isoquinoline dihydrochloride] | 2.8 nM | 0.58 nM
3 | CCCN(C)S(=O)(=O)c1ccc(-c2cc3ccccc3c(N3CCN(CC)CC3)n2)cc1 [Example 358, 1-(4-ethylpiperazin-1-yl)-3-[4-(N-methyl-N-propylsulfamoyl)phenyl]isoquinoline dihydrochloride] | 6.4 nM | 19.1 nM
4 | CCN1CCN(c2nc(-c3ccc(S(=O)(=O)N(CC)CC)cc3)cc3ccccc23)CC1 [Example 359, 1-(4-ethylpiperazin-1-yl)-3-[4-(N,N-diethylsulfamoyl)phenyl]isoquinoline dihydrochloride] | 6.1 nM | 3.2 nM
5 | CCC(C)NS(=O)(=O)c1ccc(-c2cc3ccccc3c(N3CCN(CC)CC3)n2)cc1 (centres unmarked) [Example 360, 1-(4-ethylpiperazin-1-yl)-3-{4-[N-(1-methylpropyl)sulfamoyl]phenyl}isoquinoline dihydrochloride] | 2 nM | 1.5 nM
6 | CCN1CCN(c2nc(-c3ccc(S(=O)(=O)NC)cc3)cc3ccccc23)CC1 [Example 361, 1-(4-ethylpiperazin-1-yl)-3-[4-(N-methylsulfamoyl)phenyl]isoquinoline dihydrochloride] | 3.5 nM | 2.6 nM
7 | CCN1CCN(c2nc(-c3ccc(S(=O)(=O)N(C)C)cc3)cc3ccccc23)CC1 [Example 362, 1-(4-ethylpiperazin-1-yl)-3-[4-(N,N-dimethylsulfamoyl)phenyl]isoquinoline dihydrochloride] | 4.5 nM | 24.1 nM
8 | CCN1CCN(c2nc(-c3ccc(S(=O)(=O)NC4CC4)cc3)cc3ccccc23)CC1 [Example 363, 1-(4-ethylpiperazin-1-yl)-3-[4-(N-cyclopropylsulfamoyl)phenyl]isoquinoline dihydrochloride] | 3.5 nM | 0.61 nM
9 | CCNC(=O)c1ccc(-c2cc3ccccc3c(N3CCN(CC)CC3)n2)cc1 [Example 364, 1-(4-ethylpiperazin-1-yl)-3-[4-(N-ethylcarbamoyl)phenyl]isoquinoline dihydrochloride] | 21.7 nM | 3.9 nM
10 | CCN1CCN(c2nc(-c3ccc(C(=O)NC)cc3)cc3ccccc23)CC1 [Example 365, 1-(4-ethylpiperazin-1-yl)-3-[4-(N-methylcarbamoyl)phenyl]isoquinoline dihydrochloride] | 26.2 nM | 9.9 nM
11 | CCN1CCN(c2nc(-c3ccc(S(=O)(=O)CC)cc3)cc3ccccc23)CC1 [Example 366, 1-(4-ethylpiperazin-1-yl)-3-[4-(ethylsulfonyl)phenyl]isoquinoline dihydrochloride] | 3.8 nM | 7.2 nM
12 | CCN1CCN(c2nc(-c3ccc(OCCOC)c(F)c3)cc3ccccc23)CC1 [Example 367, 1-(4-ethylpiperazin-1-yl)-3-(3-fluoro-4-methoxyethoxyphenyl)isoquinoline dihydrochloride] | 55.2 nM | 3.3 nM
13 | CCN1CCN(c2nc(-c3cc(F)c(OCCOC)c(F)c3)cc3ccccc23)CC1 [Example 368, 1-(4-ethylpiperazin-1-yl)-3-(3,5-difluoro-4-methoxyethoxyphenyl)isoquinoline dihydrochloride] | 32 nM | 9.1 nM
14 | CCN1CCN(c2nc(-c3ccc(OCCO)c(F)c3)cc3ccccc23)CC1 [Example 369, 1-(4-ethylpiperazin-1-yl)-3-[3-fluoro-4-(2-hydroxyethoxy)phenyl]isoquinoline dihydrochloride] | 28.2 nM | 2.5 nM
15 | CCN1CCN(c2nc(-c3cc(F)c(OCCO)c(F)c3)cc3ccccc23)CC1 [Example 370, 1-(4-ethylpiperazin-1-yl)-3-[3,5-difluoro-4-(2-hydroxyethoxy)phenyl]isoquinoline] | 23.9 nM | 3.4 nM
16 | CCN1CCN(c2nc(-c3cc(F)c(OCCF)c(F)c3)cc3ccccc23)CC1 [Example 371, 1-(4-ethylpiperazin-1-yl)-3-[3,5-difluoro-4-(2-fluoroethoxy)phenyl]isoquinoline dihydrochloride] | 41 nM | 4.3 nM
17 | CCN1CCN(c2nc(Sc3ccccc3)cc3ccccc23)CC1 [Example 374, 1-(4-ethylpiperazin-1-yl)-3-(phenylthio)isoquinoline oxalate] | 44.5 nM | 24.7 nM

Row | SMILES | Ki (serotonin 1A receptor) | Ki (serotonin 2 receptor)
18 | CCN1CCN(c2nc(-c3ccc(CC(C)=O)cc3)cc3ccccc23)CC1 [Example 375, 1-(4-ethylpiperazin-1-yl)-3-[4-(2-oxopropyl)phenyl]isoquinoline dihydrochloride] | 30.5 nM | 7.6 nM
19 | CCN1CCN(c2nc(-c3ccc(CC(C)O)cc3)cc3ccccc23)CC1 (centres unmarked) [Example 376, 1-(4-ethylpiperazin-1-yl)-3-[4-(2-hydroxypropyl)phenyl]isoquinoline oxalate] | 19.5 nM | 6.3 nM
20 | CCN1CCN(c2nc(-c3ccc(CC(C)(C)O)cc3)cc3ccccc23)CC1 [Example 377, 1-(4-Ethylpiperazin-1-yl)-3-[4-(2-Hydroxy-2-Methylpropyl)Phenyl]Isoquinoline Oxalate] | 28.5 nM | 16.5 nM
21 | CCN1CCN(c2nc(Sc3ccccn3)cc3ccccc23)CC1 [Example 378, 1-(4-Ethylpiperazin-1-yl)-3-(2-Pyridylthio)Isoquinoline Oxalate] | 42.7 nM | 95.2 nM
22 | CCC/C(=N\O)c1ccc(-c2cc3ccccc3c(N3CCN(CC)CC3)n2)cc1 [Example 380, 1-(4-Ethylpiperazin-1-yl)-3-[4-(1-Hydroxyiminobutyl)Phenyl]Isoquinoline] | 31.2 nM | 23 nM
23 | CCCN(C)C(=O)c1ccc(-c2cc3ccccc3c(N3CCN(CC)CC3)n2)cc1 [Example 381] | 11.1 nM | 27.3 nM
24 | CCN1CCN(c2nc(-c3ccc(C(C)CCO)cc3)cc3ccccc23)CC1 (centres unmarked) [Example 383, 1-(4-Ethylpiperazin-1-yl)-3-[4-(3-Hydroxy-1-Methylpropyl)Phenyl]Isoquinoline Oxalate] | 7.4 nM | 3.4 nM
25 | CCCNC(=O)c1ccc(-c2cc3ccccc3c(N3CCN(CC)CC3)n2)cc1F [Example 384, 1-(4-Ethylpiperazin-1-yl)-3-[4-(N-Propylcarbamoyl)-3-Fluorophenyl]Isoquinoline Dihydrochloride] | 27.3 nM | 0.1 nM
26 | CCN1CCN(c2nc(-c3ccc(CCO)c(F)c3)cc3ccccc23)CC1 [Example 385, 1-(4-Ethylpiperazin-1-yl)-3-[3-Fluoro-4-(2-Hydroxyethyl)Phenyl]Isoquinoline Dihydrochloride] | 14.8 nM | 21.6 nM
27 | CCN1CCN(c2nc(-c3ccc(CC(C)CO)cc3)cc3ccccc23)CC1 (centres unmarked) [Example 386, 1-(4-Ethylpiperazin-1-yl)-3-[4-(3-Hydroxy-2-Methylpropyl)Phenyl]Isoquinoline Oxalate] | 8.9 nM | 2.4 nM
28 | CCN1CCN(c2nc(-c3ccc(C(O)CO)cc3)cc3ccccc23)CC1 (centres unmarked) [Example 387, 1-(4-Ethylpiperazin-1-yl)-3-[4-(1,2-Dihydroxyethyl)Phenyl]Isoquinoline Dihydrochloride] | 25.1 nM | 24.7 nM
29 | CCN1CCN(c2nc(-c3ccc(CCC(C)(C)O)cc3)cc3ccccc23)CC1 [Example 388, 1-(4-Ethylpiperazin-1-yl)-3-[4-(3-Hydroxy-3-Methylbutyl)Phenyl]Isoquinoline Dihydrochloride] | 21.5 nM | 0.7 nM
30 | CCN1CCN(c2nc(-c3ccc(CC(C)(C)CO)cc3)cc3ccccc23)CC1 [Example 389, 1-(4-Ethylpiperazin-1-yl)-3-[4-(3-Hydroxy-2,2-Dimethylpropyl)Phenyl]Isoquinoline Oxalate] | 14.2 nM | 7.3 nM
31 | CCN1CCN(c2nc(-c3ccc(C(C)(C)CCO)cc3)cc3ccccc23)CC1 [Example 390, Oxalate] | 7.5 nM | 11.1 nM
32 | CCN1CCN(c2nc(-c3ccc(C(O)C(C)(C)CO)cc3)cc3ccccc23)CC1 (centres unmarked) [Example 391, 1-(4-Ethylpiperazin-1-yl)-3-[4-(1,3-Dihydroxy-2,2-Dimethylpropyl)Phenyl]Isoquinoline Dihydrochloride] | 3.6 nM | 12.8 nM
33 | CCN1CCN(c2nc(-c3ccc(CO)c(CO)c3)cc3ccccc23)CC1 [Example 394, 1-(4-Ethylpiperazin-1-yl)-3-[(3,4-Dihydroxymethyl)Phenyl]Isoquinoline Dihydrochloride] | 10.7 nM | 32.9 nM
34 | CCN1CCN(c2nc(-c3ccc(C4COCCO4)cc3)cc3ccccc23)CC1 (centres unmarked) [Example 395, 1-(4-Ethylpiperazin-1-yl)-3-[4-(1,4-Dioxan-2-yl)Phenyl]Isoquinoline Dihydrochloride] | 37.3 nM | 4.8 nM
